Source: patent US4235923A, “Esters of 3-substituted-2-(aminocarbonyl)oxiranecarboxylic acids as lipogenesis inhibitors” (Shell Oil Company, priority 1979, dated 1980)

Each compound was assayed on lipogenesis in swine adipose tissue (assay: inhibition of lipogenesis (incorporation of radioactive glucose carbon into lipid) in slices of swine adipose tissue). Conditions: 100 micrograms per milliliter, 37° C., 2 hours, glucose-U^14 C, insulin, 5% DMSO, triplicate.
Assay type: cell-based
Description: The manner in which they cause this effect is not known with certainty; it is believed that they interfere with the synthesis of fatty acids in the tissues. Their effectiveness for this purpose has been ascertained by immersing samples of swine adipose tissue in a liquid medium containing radioactive glucose and the test chemical, for a period of time, then isolating the lipid from the treated tissue and determining the incorporation of the radioactive carbon into lipid by means of scintillation counting techniques. These tests were conducted in swine adipose tissue because in swine, the primary site of lipogensis--i.e., fatty acid synthesis--appears to be adipose tissue.
Described in more detail, the tests were conducted according to the following general procedure:
150 milligrams of slices of swine adipose tissue were incubated at 37° C. for 2 hours with shaking in 3 milliliters of Krebs-Ringer bicarbonate solution containing one-half the normal calcium ion concentration, 60 micromoles of glucose, 0.5 micro-Curie of glucose-U^14 C, and 300 microunits of insulin, and 5% dimethyl sulfoxide (DMSO). The test compounds were added as suspensions or solutions in DMSO and were present at a concentration of 100 micrograms per milliliter of the incubation mixture.
The incubation was terminated by addition of 0.25 milliliter of 1 N sulfuric acid. The resulting mixture was extracted with a total of 25 milliliters of chloroform: methanol (2:1 v/v). The extracts were washed according to Folch et al. (J. Biol. Chem., 226, 497-509, (1957)), air dried, and counted in a liquid scintillation counter with 15 milliliters of counting fluid (two parts toluene containing 0.4% w/v New England Nuclear Omnifluor: 1 part Triton X-100). The tests were conducted in triplicate and were accompanied by control tests in which all ingredients,proportions and conditions were the same except that no test compound was included. From the data obtained were calculated the percent inhibition of lipid synthesis by the test compound in each case. The data obtained from the tests are set out in Table 1, as the percent inhibition of lipogenesis compared to the results obtained in the control tests wherein only the test compound was omitted.
For CCCCCCC1OC1(C(N)=O)C(=O)OCC (stereo not drawn) [Compound 2, Ethyl 2-(aminocarbonyl)-3-hexyloxiranecarboxylate cis], the “Percent Inhibition (of lipogenesis compared to control)” value was 83%.

Same assay, conditions: Sus scrofa, 2 h, 100 micrograms per milliliter, 37° C., glucose-U^14 C, insulin, 5% DMSO, triplicate, read-out: Percent Inhibition (of lipogenesis compared to control)
For CCOC(=O)C1(C(N)=O)OC1c1ccc([N+](=O)[O-])cc1 (stereo not shown) [Compound 15], the inhibition at 100 µg/mL was 37%.
In the case of CCOC(=O)C1(C(N)=O)OC1c1cccc([N+](=O)[O-])c1 (stereo not shown) [Compound 12], the inhibition at 100 µg/mL is reported as 76%.
With CCOC(=O)C1(C(N)=O)OC1c1ccccc1 (stereo not shown) [Compound 5, Ethyl 2-(aminocarbonyl)-3-phenyloxiranecarboxylate] the inhibition at 100 µg/mL was 85%.
With CCCCCCC1OC1(C(N)=O)C(=O)OCC (stereo not drawn) [Compound 1, Ethyl 2-(aminocarbonyl)-3-hexyloxiranecarboxylate trans] the inhibition at 100 µg/mL was 88%.
In the case of CCOC(=O)C1(C(N)=O)OC1C (stereo not shown) [Compound 3, Ethyl 2-(aminocarbonyl)-3-methyloxiranecarboxylate], the inhibition at 100 µg/mL is reported as 18%.
CCOC(=O)C1(C(N)=O)OC1c1ccc(OC)cc1 (stereo not shown) [Compound 14] gave an inhibition at 100 µg/mL of 55%.
Compound CCOC(=O)C1(C(N)=O)OC1C(=O)c1ccccc1 (stereo not shown) [Compound 16, Ethyl 2-(aminocarbonyl)-3-benzoyloxiranecarboxylate] has an inhibition at 100 µg/mL of 74%.
Work on CCOC(=O)C1(C(N)=O)OC1c1ccc(C)cc1 (stereo not shown) [Compound 10] yielded an inhibition at 100 µg/mL of 37%.
With CC(C)OC(=O)C1(C(N)=O)OC1c1ccccc1 (stereo not shown) [Compound 7, 1-Methylethyl 2-(aminocarbonyl)-3-phenyloxiranecarboxylate] the inhibition at 100 µg/mL was 48%.
CCOC(=O)C1(C(N)=O)OC1c1ccc(Cl)cc1 (stereo not shown) [Compound 9] showed an inhibition at 100 µg/mL of 65%.
In the case of CCOC(=O)C1(C(N)=O)OC1C1CCCCC1 (stereo not shown) [Compound 4, Ethyl 2-(Aminocarbonyl)-3-cyclohexyloxiranecarboxylate], the inhibition at 100 µg/mL is reported as 75%.
CCOC(=O)C1(C(N)=O)OC1c1ccc(Cl)c(Cl)c1 (stereo not shown) [Compound 13] was tested, and the inhibition at 100 µg/mL was 87%.
With CCOC(=O)C1(C(N)=O)OC1c1ccc(OC)c(OC)c1 (stereo not shown) [Compound 11] the inhibition at 100 µg/mL was 33%.
CCOC(=O)C1(C(=O)NC)OC1c1ccccc1 (stereo not shown) [Compound 6] gave an inhibition at 100 µg/mL of 27%.
In the case of COC(=O)C1(C(N)=O)OC1c1ccccc1 (stereo not shown) [Compound 8, Methyl 2-(aminocarbonyl)-3-phenyloxiranecarboxylate], the inhibition at 100 µg/mL is reported as 47%.
